The text below walks through data of patent US5795907A, “Gastin and CCK receptor ligands” (James Black Foundation Limited, priority 1994, dated 1998).

The target of one assay is T1, CCKB receptor (Mus musculus, UniProt P56481).
T1 construct: The cortex was dissected, weighed and homogenised in 40ml ice-cold buffer; tissue Charles River (supplier of the CD1 mice); host or cells: cerebral cortex membranes of male CD1 mice
T1 sequence (P56481 1-453): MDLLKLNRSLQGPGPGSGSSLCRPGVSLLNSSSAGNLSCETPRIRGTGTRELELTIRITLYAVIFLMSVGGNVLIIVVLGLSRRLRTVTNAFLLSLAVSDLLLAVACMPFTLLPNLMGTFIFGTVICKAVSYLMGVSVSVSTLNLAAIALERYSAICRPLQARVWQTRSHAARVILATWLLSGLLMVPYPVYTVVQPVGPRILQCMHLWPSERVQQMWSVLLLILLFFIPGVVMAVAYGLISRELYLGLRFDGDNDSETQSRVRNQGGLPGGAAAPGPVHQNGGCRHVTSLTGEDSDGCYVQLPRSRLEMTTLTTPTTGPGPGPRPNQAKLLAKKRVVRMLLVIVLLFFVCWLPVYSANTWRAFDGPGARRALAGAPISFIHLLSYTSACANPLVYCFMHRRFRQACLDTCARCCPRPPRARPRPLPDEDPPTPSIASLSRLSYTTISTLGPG
Kind of assay: CCKB receptor radioligand binding assay in mouse cortical membranes ([125I]-CCK8S). Conditions: [125I]-CCK8S 200 pM, 150 min at 21±3°; for Ki: read-out: CCKB pKi (converted). In a few lines:
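Cortical membranes from male CD1 mice in HEPES buffer (pH 7.2; NaCl, KCl, MgCl2, EDTA, bacitracin) were incubated with competing compound and [125I]-CCK8S (added as a 200 pM solution) for 150 min at 21±3°. Non-specific binding was defined with L-365,260. Bound tracer was separated by GF/B filtration and counted by gamma counting.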

In a further assay the target is T2, CCKA (Cavia porcellus, UniProt Q63931).
T2 construct: The pancreatata were homogenised in 40 ml ice-cold HEPES buffer using a polytron; from tissue; host or cells: pancreas membranes of male Dunkin Hartley guinea-pigs
T2 sequence (Q63931 1-430): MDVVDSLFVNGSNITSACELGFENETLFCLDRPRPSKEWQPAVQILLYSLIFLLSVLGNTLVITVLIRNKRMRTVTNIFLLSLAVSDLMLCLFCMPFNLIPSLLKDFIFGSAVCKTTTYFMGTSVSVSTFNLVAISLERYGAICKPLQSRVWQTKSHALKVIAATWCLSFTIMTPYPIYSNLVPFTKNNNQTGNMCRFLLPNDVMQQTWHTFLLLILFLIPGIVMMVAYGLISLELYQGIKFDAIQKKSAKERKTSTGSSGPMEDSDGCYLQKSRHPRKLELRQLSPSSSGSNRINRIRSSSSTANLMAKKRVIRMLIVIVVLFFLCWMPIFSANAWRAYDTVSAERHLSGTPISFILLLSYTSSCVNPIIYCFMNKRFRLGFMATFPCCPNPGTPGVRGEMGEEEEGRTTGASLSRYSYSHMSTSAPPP
In words: CCKA radioligand binding assay in guinea-pig pancreas membranes ([125I]-CCK8(S)). Conditions: PD134,308 present, 150 minutes at 21±3°; for Ki: read-out: CCKA pKi (converted). The method, boiled down:
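Male guinea-pig pancreas membranes (1 mg/ml wet tissue in HEPES pH 7.2, suspension containing 0.375 μM PD134,308) were incubated 150 min at 21±3° with [125I]-CCK8(S) ([…] added solution) and competitor. Non-specific binding used 100 nM L-364,718 (added solution). Bound radioligand was measured by GF/B filtration and gamma counting.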

The target of the next assay is T3, gastrin (Rattus norvegicus, UniProt P30553).
T3 construct: The stomach was lowered into a jacketed organ bath containing 40 ml of buffered solution; from tissue; host or cells: isolated perfused whole stomach of immature rats (ca. 21 days old)
T3 sequence (P30553 1-452): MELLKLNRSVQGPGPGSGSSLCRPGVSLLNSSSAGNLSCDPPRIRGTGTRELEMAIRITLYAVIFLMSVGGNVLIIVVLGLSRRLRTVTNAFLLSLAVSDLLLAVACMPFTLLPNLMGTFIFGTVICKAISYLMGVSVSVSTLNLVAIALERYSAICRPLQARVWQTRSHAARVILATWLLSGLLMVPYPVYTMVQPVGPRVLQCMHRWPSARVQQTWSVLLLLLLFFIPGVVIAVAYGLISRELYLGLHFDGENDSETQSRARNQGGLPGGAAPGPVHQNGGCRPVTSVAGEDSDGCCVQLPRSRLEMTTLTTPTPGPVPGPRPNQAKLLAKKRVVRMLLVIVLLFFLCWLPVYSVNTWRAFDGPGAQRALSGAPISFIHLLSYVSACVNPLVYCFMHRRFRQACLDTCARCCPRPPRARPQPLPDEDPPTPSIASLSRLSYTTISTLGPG
In words: gastrin antagonist activity in an immature rat stomach assay (pentagastrin-stimulated acid secretion). Conditions: cumulative pentagastrin dose-response curves after 60 min with drug; for Kb: read-out: Gastrin pKB (converted). In a few lines: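 Isolated lumen-perfused immature rat stomach (33-50 g, ca. 21 days) in 37° organ bath with 3×10^-8 M 5-methylfurmethide; acid secretion read by pH electrode in perfusate. Compound added to serosal bath after 120 min stabilisation; cumulative pentagastrin dose-response curves begun 60 min later and analysed by the Black et al. method.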

`CN(C(=O)[C@H](Cc1ccccc1)NC(=O)c1cc2[nH]cnc2cc1C(=O)NCC12CC3CC(CC(C3)C1)C2)c1cc(C(=O)O)cc(C(=O)O)c1` [Example 73, 5-(1S-(3,5-dicarboxyphenyl-N-(methyl)amino-carbonyl)-2-phenylethylaminocarbonyl)-6-(1-adamantane-methylaminocarbonyl)-benzimidazole]: the “CCKB pKi” value on CCKB receptor was determined as 6.3. For the same compound, the Ki at CCKA was 6310 nM. The Kb on gastrin is 63.1 nM.
Turning to `Cn1cnc2cc(C(=O)N[C@@H](Cc3ccccc3)C(=O)Nc3cc(C(=O)O)cc(C(=O)O)c3)c(C(=O)NCC34CC5CC(CC(C5)C3)C4)cc21` [Example 74, N-methyl-5-(1S-(3,5-dicarboxyphenylaminocarbonyl)-2-phenylethylaminocarbonyl)-6-(1-adamantanemethylaminocarbonyl)-benzimidazole], the “CCKB pKi” value at CCKB receptor was determined as 7.6. For the same compound, the “CCKA pKi” value on CCKA was 5.3. Moreover, the “Gastrin pKB” value at gastrin came to 9.0.
On the same counts, the results for `O=C(O)c1cc(NC(=O)[C@H](Cc2ccccc2)NC(=O)c2cc3[nH]cnc3cc2C(=O)NCC23CC4CC(CC(C4)C2)C3)ccc1F` [Example 75, 5-(1S-(3-carboxy-4-fluoro-phenylaminocarbonyl)-2-phenylethylaminocarbonyl)-6-(1-adamantanemethylaminocarbonyl)-benzimidazole] are 7.8, 6.1 and 7.7.
In the case of `O=C(O)CNC(=O)[C@H]1CCCN1C(=O)c1cc2[nH]cnc2cc1C(=O)NCC12CC3CC(CC(C3)C1)C2` [Example 76, 5-(2R-carboxymethylaminocarbonylpyrrolidino-carbonyl)-6-(1-adamantanemethylaminocarbonyl)-benzimidazole], the Ki is 631 nM on CCKB receptor and more than 10000 nM on CCKA. At gastrin, the Kb is 126 nM.
Taken in the same sequence, the figures for `O=C(O)c1cc(NC(=O)[C@@H]2CCCN2C(=O)c2cc3[nH]cnc3cc2C(=O)NCC23CC4CC(CC(C4)C2)C3)cc(C(=O)O)c1` [Example 77, 5-(2S-(3,5-dicarboxyphenylaminocarbonyl)-pyrrolidinocarbonyl)-6-(1-adamantanemethylaminocarbonyl)-benzimidazole] were 251 nM, more than 10000 nM and 100 nM.
For the compound `O=C(O)c1ccc(C(=O)O)c(NC(=O)[C@H](Cc2ccccc2)NC(=O)c2cc3[nH]cnc3cc2C(=O)NCC23CC4CC(CC(C4)C2)C3)c1` [Example 78, 5-(1S-(2,5-dicarboxyphenylaminocarbonyl)-2-phenylethylaminocarbonyl)-6-(1-adamantanemethylaminocarbonyl)-benzimidazole], the “CCKB pKi” value at CCKB receptor stood at 7.3. Further, the “CCKA pKi” value on CCKA came out at 5.3. Besides, the “Gastrin pKB” value on gastrin was 8.6.
As to `O=C(O)c1cccc(NC(=O)[C@H](Cc2ccccc2)NC(=O)c2cc3[nH]cnc3cc2C(=O)NCC23CC4CC(CC(C4)C2)C3)c1` [Example 79, 5-(1S-(3-carboxyphenylaminocarbonyl)-2-phenylethylaminocarbonyl)-6-(1-adamantanemethylaminocarbonyl)-benzimidazole], the results for the Ki at CCKB receptor and at CCKA were 20 nM and 1000 nM, respectively. The Kb on gastrin was 100 nM.
On the same counts, the results for `O=C(NCC12CC3CC(CC(C3)C1)C2)c1cc2nc[nH]c2cc1C(=O)N[C@@H](Cc1ccccc1)C(=O)Nc1cc(-c2nn[nH]n2)cc(-c2nn[nH]n2)c1` [Example 80, 5-(1S-(3,5-ditetrazolylphenylaminocarbonyl)-2-phenylethylaminocarbonyl)-6-(1-adamantanemethylaminocarbonyl)-benzimidazole] are 3.98 nM, 794 nM and 6.31 nM.
Consider `COC(=O)c1cc(NC(=O)[C@H](Cc2ccccc2)NC(=O)c2cc3[nH]cnc3cc2C(=O)NCC23CC4CC(CC(C4)C2)C3)cc(C(=O)OC)c1` [Example 81, 5-(1S-(3,5-dimethoxycarbonylphenylaminocarbonyl)-2-phenylethylaminocarbonyl)-6-(1-adamantane-methylaminocarbonyl)-benzimidazole], for which the figures for the Ki at CCKB receptor and on CCKA were 794 nM and 3160 nM, respectively. Besides, the Kb on gastrin was 126 nM.
In the case of `Cc1ccc(C(=O)O)cc1NC(=O)[C@H](Cc1ccccc1)NC(=O)c1cc2[nH]cnc2cc1C(=O)NCC12CC3CC(CC(C3)C1)C2` [Example 82, 5-(1S-(2-methyl-5-carboxyphenylaminocarbonyl)-2-phenylethylaminocarbonyl)-6-(1-adamantanemethylaminocarbonyl)-benzimidazole], the Ki at CCKB receptor was 100 nM; on CCKA, 2000 nM. For the same compound, the Kb at gastrin was 126 nM.
For `O=C(NCC12CC3CC(CC(C3)C1)C2)c1cc2nc[nH]c2cc1C(=O)N[C@@H](Cc1ccccc1)C(=O)Nc1cccc(-c2nn[nH]n2)c1` [Example 83, 5-(1S-(3-tetrazolylphenylaminocarbonyl)-2-phenylethylaminocarbonyl)-6-(1-adamantanemethylaminocarbonyl)-benzimidazole], the Ki is 15.8 nM at CCKB receptor and 398 nM on CCKA. The Kb on gastrin was 63.1 nM.
As to `CN(C(=O)c1cc2[nH]cnc2cc1C(=O)NCC12CC3CC(CC(C3)C1)C2)[C@@H](Cc1ccccc1)C(=O)Nc1cc(C(=O)O)cc(C(=O)O)c1` [Example 86, 5-(1S-(3,5-dicarboxyphenylaminocarbonyl)-2-30 phenylethyl-(N-methylamino)-carbonyl)-6-(1-adamantanemethylaminocarbonyl)-benzimidazole], on CCKB receptor, the Ki was 31.6 nM. Besides, the “CCKA pKi” value on CCKA amounted to 5.0. Further, the Kb at gastrin is 20 nM.
In the case of `O=C(O)c1cc(NC(=O)[C@H](Cc2ccccc2F)NC(=O)c2cc3cc[nH]c3cc2C(=O)NCC23CC4CC(CC(C4)C2)C3)cc(C(=O)O)c1` [Example 87, 5-(1S-(3,5-dicarboxyphenylaminocarbonyl)-2-(2-fluorophenyl)ethylaminocarbonyl)-6-(1-adamantanemethylaminocarbonyl)-indole], the Ki on CCKB receptor is 0.794 nM; on CCKA, 3160 nM. In addition, at gastrin, the Kb is 0.251 nM.
Take `O=C(O)c1cc(NC(=O)[C@H](Cc2ccccc2F)NC(=O)c2cc3[nH]ccc3cc2C(=O)NCC23CC4CC(CC(C4)C2)C3)cc(C(=O)O)c1` [Example 88, 6-(1S-(3,5-dicarboxyphenylaminocarbonyl)-2-(2-25 fluorophenyl)ethylaminocarbonyl)-5-(1-adamantaneinetnyl-aminocarbonyl)-indole]: the Ki on CCKB receptor is 5.01 nM; at CCKA, 2510 nM. Also, the Kb at gastrin was 2.51 nM.
